Here are results for 13 compounds from PubChem BioAssay (NCI).

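These data come from cells grown in 96-well plates and exposed to compound for 48 hours at five concentrations. TGI is the concentration that stops growth completely.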

One test has as its system COLO 205 colon. Put plainly: NCI tumour cell line growth inhibition, 48 h.
Compound `Cc1c(C)n(-c2ccccc2)c2nc(S(C)(=O)=O)nc(S(C)(=O)=O)c12` had a TGI of 3.29 µM.
On the same count and under the same terms, the same measure for `Cc1ccccc1N/C(=C(/C(Cl)=C(Cl)Cl)[N+](=O)[O-])n1nnc2ccccc21`: 29.1 µM.
Turning to `CCOC(=O)c1nc2ccc(C(F)(F)F)cc2[nH]c1=O`, the TGI was more than 100 µM.
In the case of `CCC(=O)O[C@H]1CC[C@H]2[C@@H]3CCC4=C/C(=N/OC(=O)c5cccc6c(=O)c7ccccc7[nH]c56)CC[C@]4(C)[C@H]3CC[C@]12C`, the TGI is more than 100 µM.
For `COc1ccc2[nH]c3c(c2c1)CC(=S)N1CCCC(CC3=O)C1` (configuration not stated), the TGI was more than 100 µM.
As for `O=C(O/C=C\OC1CCCC1(c1ccccc1)c1ccccc1)c1ccccc1` (configuration not stated), the TGI came to 31.5 µM.

The next test relates to BT-549 breast. Put plainly: NCI tumour cell line growth inhibition, 48 h.
`COc1ccc2c(c1)C(=O)OCCC2`: the TGI was more than 100 µM.
Same read-out and setting: the same measure for `CCOC(=O)c1c(NC(=O)OC)c(C#N)c2n1CCCCC2`: more than 100 µM; for `O=C(/C=C/c1ccc(OCc2cccc(Cl)c2)cc1)NO`: 80.7 µM; for `COc1cc(C(C)=O)cc(C(=O)N(C(C)C)C(C)C)c1[Si](C)(C)C`: more than 100 µM.
Still for that read-out and setting: the figure for `COc1ccc(-c2nc(-c3cc4c(ccc5ccccc54)oc3=O)cs2)cc1` is more than 100 µM; for `Cc1cc(C)c(C(=O)c2nnc3ccccc3c2N)c(C)c1` it is more than 100 µM; for `Cc1ccccc1N/C(=C(/C(Cl)=C(Cl)Cl)[N+](=O)[O-])n1nnc2ccccc21` it is 27.5 µM.
The same measure, in the same setting: the figure for `CCOC(=O)c1nc2ccc(C(F)(F)F)cc2[nH]c1=O` is more than 100 µM.
Take `CCC(=O)O[C@H]1CC[C@H]2[C@@H]3CCC4=C/C(=N/OC(=O)c5cccc6c(=O)c7ccccc7[nH]c56)CC[C@]4(C)[C@H]3CC[C@]12C`: the TGI is more than 100 µM.
Still for that read-out and setting: the figure for `COc1ccc2[nH]c3c(c2c1)CC(=S)N1CCCC(CC3=O)C1` (configuration not stated) is more than 100 µM; for `O=C(O/C=C\OC1CCCC1(c1ccccc1)c1ccccc1)c1ccccc1` (configuration not stated) it is 4.58 µM.

For a further test, the system named is SK-MEL-5 melanoma. Put plainly: NCI tumour cell line growth inhibition, 48 h.
On to `CCCCCCCCCCCCC/C=C/[C@@H](O)[C@H](COC1OC(CO)C(OC2OC(CO)C(O)C(OC3(C(=O)O)CC(O)C(NC(C)=O)C(C(O)C(O)CO)O3)C2O)C(O)C1O)N=[N+]=[N-]` (some centres not stated), for which the TGI is 41.6 µM.
Same read-out and setting: the figure for `COc1ccc2c(c1)C(=O)OCCC2` is more than 100 µM.
The compound `CCOC(=O)c1c(NC(=O)OC)c(C#N)c2n1CCCCC2` came in with a TGI of more than 100 µM.
`O=C(/C=C/c1ccc(OCc2cccc(Cl)c2)cc1)NO` showed a TGI of 45.7 µM.
The same measure, in the same setting: the same measure for `COc1cc(C(C)=O)cc(C(=O)N(C(C)C)C(C)C)c1[Si](C)(C)C`: more than 100 µM; for `COc1ccc(-c2nc(-c3cc4c(ccc5ccccc54)oc3=O)cs2)cc1`: more than 100 µM.
Still for that read-out and setting: the figure for `Cc1cc(C)c(C(=O)c2nnc3ccccc3c2N)c(C)c1` is 26.8 µM; for `Cc1c(C)n(-c2ccccc2)c2nc(S(C)(=O)=O)nc(S(C)(=O)=O)c12` it is 27.1 µM.
Regarding `CCOC(=O)c1nc2ccc(C(F)(F)F)cc2[nH]c1=O`, the TGI was more than 100 µM.
The same measure, in the same setting: the same measure for `CCC(=O)O[C@H]1CC[C@H]2[C@@H]3CCC4=C/C(=N/OC(=O)c5cccc6c(=O)c7ccccc7[nH]c56)CC[C@]4(C)[C@H]3CC[C@]12C`: more than 100 µM.
`COc1ccc2[nH]c3c(c2c1)CC(=S)N1CCCC(CC3=O)C1` (configuration not stated) returned a TGI of more than 100 µM.
On the same count and under the same terms, the figure for `O=C(O/C=C\OC1CCCC1(c1ccccc1)c1ccccc1)c1ccccc1` (configuration not stated) is 23.8 µM.

In the next test the test system is SF-295 CNS. Put plainly: NCI tumour cell line growth inhibition, 48 h.
For `CCCCCCCCCCCCC/C=C/[C@@H](O)[C@H](COC1OC(CO)C(OC2OC(CO)C(O)C(OC3(C(=O)O)CC(O)C(NC(C)=O)C(C(O)C(O)CO)O3)C2O)C(O)C1O)N=[N+]=[N-]` (some centres not stated), the TGI is 88 µM.
On the same count and under the same terms, the same measure for `COc1ccc2c(c1)C(=O)OCCC2`: more than 100 µM.
As for `CCOC(=O)c1c(NC(=O)OC)c(C#N)c2n1CCCCC2`, the TGI was more than 100 µM.
Consider `O=C(/C=C/c1ccc(OCc2cccc(Cl)c2)cc1)NO`, for which the TGI stood at 50.1 µM.
In turn, `COc1cc(C(C)=O)cc(C(=O)N(C(C)C)C(C)C)c1[Si](C)(C)C` came in with a TGI of more than 100 µM.
On the same count and under the same terms, the same measure for `COc1ccc(-c2nc(-c3cc4c(ccc5ccccc54)oc3=O)cs2)cc1`: more than 100 µM.
`Cc1c(C)n(-c2ccccc2)c2nc(S(C)(=O)=O)nc(S(C)(=O)=O)c12` showed a TGI of 31.1 µM.
Take `Cc1ccccc1N/C(=C(/C(Cl)=C(Cl)Cl)[N+](=O)[O-])n1nnc2ccccc21`: the TGI was 28.8 µM.
The same measure, in the same setting: the same measure for `CCOC(=O)c1nc2ccc(C(F)(F)F)cc2[nH]c1=O`: more than 100 µM; for `CCC(=O)O[C@H]1CC[C@H]2[C@@H]3CCC4=C/C(=N/OC(=O)c5cccc6c(=O)c7ccccc7[nH]c56)CC[C@]4(C)[C@H]3CC[C@]12C`: more than 100 µM; for `COc1ccc2[nH]c3c(c2c1)CC(=S)N1CCCC(CC3=O)C1` (configuration not stated): more than 100 µM.
Same read-out and setting: the same measure for `O=C(O/C=C\OC1CCCC1(c1ccccc1)c1ccccc1)c1ccccc1` (configuration not stated): 34.9 µM.

In the next test the test system is OVCAR-3 ovarian. The test is described as follows: NCI tumour cell line growth inhibition, 48 h.
For `CCCCCCCCCCCCC/C=C/[C@@H](O)[C@H](COC1OC(CO)C(OC2OC(CO)C(O)C(OC3(C(=O)O)CC(O)C(NC(C)=O)C(C(O)C(O)CO)O3)C2O)C(O)C1O)N=[N+]=[N-]` (some centres not stated), the TGI is more than 100 µM.
On the same count and under the same terms, the same measure for `COc1ccc2c(c1)C(=O)OCCC2`: more than 100 µM.
`O=C(/C=C/c1ccc(OCc2cccc(Cl)c2)cc1)NO` showed a TGI of more than 100 µM.
Take `COc1cc(C(C)=O)cc(C(=O)N(C(C)C)C(C)C)c1[Si](C)(C)C`: the TGI is more than 100 µM.
Consider `Cc1cc(C)c(C(=O)c2nnc3ccccc3c2N)c(C)c1`, for which the TGI worked out at 36.6 µM.
For `Cc1c(C)n(-c2ccccc2)c2nc(S(C)(=O)=O)nc(S(C)(=O)=O)c12`, the TGI was 3.02 µM.
On the same count and under the same terms, the same measure for `Cc1ccccc1N/C(=C(/C(Cl)=C(Cl)Cl)[N+](=O)[O-])n1nnc2ccccc21`: 30.8 µM; for `CCOC(=O)c1nc2ccc(C(F)(F)F)cc2[nH]c1=O`: more than 100 µM; for `CCC(=O)O[C@H]1CC[C@H]2[C@@H]3CCC4=C/C(=N/OC(=O)c5cccc6c(=O)c7ccccc7[nH]c56)CC[C@]4(C)[C@H]3CC[C@]12C`: 38.4 µM.
Still for that read-out and setting: the same measure for `COc1ccc2[nH]c3c(c2c1)CC(=S)N1CCCC(CC3=O)C1` (configuration not stated): more than 100 µM.
Still for that read-out and setting: the figure for `O=C(O/C=C\OC1CCCC1(c1ccccc1)c1ccccc1)c1ccccc1` (configuration not stated) is 21.3 µM.
